From patent EP2488529B1, “Spirocyclic derivatives as histone deacetylase inhibitors” (DAC S.r.l., priority 2009, dated 2011)

How the values were obtained:
A549 = experiment: Cell growth, CellTiter-Glo Luminescent Cell Viability Assay (antiproliferative assay); type: cell-based; settings: Homo sapiens; A549 cells, incubated for 72 h
Source text: (§1) CellTiter-Glo® Luminescent Cell Viability Assay (Promega) is a homogeneous method of determining the number of viable cells in culture based on quantitation of the present ATP, which indicates the presence of metabolically active cells. The homogeneous assay procedure involves addition of a single reagent (CellTiter-Glo® Reagent) directly to the cells, which leads to cell lysis and generation of a luminescent signal proportional to the amount of the ATP and the number of cells present in culture. The assay relies on the properties of a proprietary thermostable luciferase (Ultra-Glo® recombinant luciferase), which generates a luminescent signal. K562, A549, and HCT-116 cells, in exponential growth, were incubated for 72 h with different concentrations of the inhibitors. After 72 h, a volume of CellTiter-Glo® Reagent equal to the volume of cell culture medium was added. The content was mixed for 2 min to induce cell lysis. The luminescence was recorded after further 10 min at RT in order to obtain a stable luminescent signal.
(§2) The IC50 was calculated using GraphPad Software.

K562 = experiment: as above; type: cell-based; settings: Homo sapiens; K562 cells, incubated for 72 h
Source text: as §1, §2

HCT-116 = experiment: as above; type: cell-based; settings: Homo sapiens; HCT-116 cells, incubated for 72 h; read-out: HCT116 IC50
Source text: as §1, §2

HDAC = experiment: Assay of enzyme inhibition of HDAC (BIOMOL kit, fluorescence); type: biochemical; settings: nuclear fraction of Hela cells; substrate 200 µM; 15 min at RT
Method: The in-vitro activity of HDAC inhibitors was assayed using a BIOMOL Kit, according to the instructions from the manufacturer (Biomolecular Research Laborator). 15 µl of 30 x diluted nuclear fraction of Hela cells, was diluted to 50 µl with the assay buffer containing the HDAC inhibitor and the substrate (lysine with acetylated amino group on the side chain) at a concentration of 200 µM. The samples were incubated for 15 min at RT and then exposed to a developer (10 min at RT). In this last step a fluorophore was produced, whose fluorescence was measured using an excitation wavelength of 355 nm and an emission at 460 nm. The IC50 was calculated using GraphPad Software.

Compound | IC50 (A549) [µM] | IC50 (K562) [µM] | IC50 (HCT-116) [µM] | IC50 (HDAC) [µM]
O=C(/C=C/c1ccc2c(c1)C(=O)CC1(CCCN(Cc3ccccc3)C1)O2)NO (racemic) [Example 13, (±)-(E)-3-[1'-Benzyl-4-oxo-spiro(chromane-2,3'-piperidine)-6-yl]-N-hydroxy-acrylamide] | ≤ 1 | ≤ 1 | ≤ 1 | ≤ 0.1
CN1CCCC2(CC(=O)c3cc(/C=C/C(=O)NO)ccc3O2)C1 (racemic) [Example 14, (±)-(E)-3-[1'-Methyl-4-oxo-spiro(chromane-2,3'-piperidine)-6-yl]-N-hydroxy-acrylamide] | ≤ 1 | ≤ 1 | ≤ 1 | 0.1 to 1
CCOC(=O)N1CCCC2(CC(=O)c3cc(/C=C/C(=O)NO)ccc3O2)C1 (racemic) [Example 15, (±)-(E)-3-[1'-Ethyloxycarbonyl-4-oxo-spiro(chromane-2,3'-piperidine)-6-yl]-N-hydroxy-acrylamide] | 1 to 3 | ≤ 1 | ≤ 1 | 0.1 to 1
CC(=O)N1CCCC2(CC(=O)c3cc(/C=C/C(=O)NO)ccc3O2)C1 (racemic) [Example 16, (±)-(E)-3-[1'-Acetyl-4-oxo-spiro(chromane-2,3'-piperidine)-6-yl]-N-hydroxy-acrylamide] | ≥ 3 | ≥ 3 | ≥ 3 | 0.1 to 1
O=C(/C=C/c1ccc2c(c1)C(=O)CC1(CCCN(Cc3ccc(F)cc3)C1)O2)NO (racemic) [Example 19, (±)-(E)-3-[1'-(4-Fluoro-benzyl)-4-oxo-spiro(chromane-2,3'-piperidine)-6-yl]-N-hydroxy-acrylamide] | 1 to 3 | ≤ 1 | ≤ 1 | ≤ 0.1
O=C(/C=C/c1ccc2c(c1)C(=O)CC1(CCCN(CCc3ccccc3)C1)O2)NO (racemic) [Example 20, (±)-(E)-3-[1'-(2-Phenyl-ethyl)-4-oxo-spiro(chromane-2,3'-piperidine)-6-yl]-N-hydroxy-acrylamide] | ≤ 1 | ≤ 1 | ≤ 1 | ≤ 0.1
O=C(/C=C/c1ccc2c(c1)C(=O)CC1(CCCN(C(=O)c3ccccc3)C1)O2)NO (racemic) [Example 21, (±)-(E)-3-[1'-Benzoyl-4-oxo-spiro(chromane-2,3'-piperidine)-6-yl]-N-hydroxy-acrylamide] | ≥ 3 | 1 to 3 | 1 to 3 | 0.1 to 1
O=C(/C=C/c1ccc2c(c1)C(=O)CC1(CCCNCC1)O2)NO (racemic) [Example 22, (±)-(E)-3-[4-Oxo-spiro(chromane-2,4'-azepane)-6-yl]-N-hydroxy-acrylamide] | ≥ 3 | ≥ 3 | 1 to 3 | 0.1 to 1
O=C(/C=C/c1ccc2c(c1)C(=O)CC1(CCCN(Cc3ccccc3)CC1)O2)NO (racemic) [Example 23, (±)-(E)-3-[1'-Benzyl-4-oxo-spiro(chromane-2,4'-azepane)-6-yl]-N-hydroxy-acrylamide] | ≤ 1 | ≤ 1 | ≤ 1 | ≤ 0.1
CC(=O)N1CCCC2(CC1)CC(=O)c1cc(/C=C/C(=O)NO)ccc1O2 (racemic) [Example 24, (±)-(E)-3-[1'-Acetyl-4-oxo-spiro(chromane-2,4'-azepane)-6-yl]-N-hydroxy-acrylamide] | ≥ 3 | ≥ 3 | ≥ 3 | 0.1 to 1
O=C(/C=C/c1ccc2c(c1)C(=O)CC1(CCCN(C(=O)c3ccccc3)CC1)O2)NO (racemic) [Example 25, (±)-(E)-3-[1'-Benzoyl-4-oxo-spiro(chromane-2,4'-azepane)-6-yl]-N-hydroxy-acrylamide] | ≥ 3 | 1 to 3 | ≤ 1 | 0.1 to 1
CN1CCCC2(CC1)CC(=O)c1cc(/C=C/C(=O)NO)ccc1O2 (racemic) [Example 26, (±)-(E)-3-[1'-Methyl-4-oxo-spiro(chromane-2,4'-azepane)-6-yl]-N-hydroxy-acrylamide] | ≤ 1 | ≤ 1 | ≤ 1 | 0.1 to 1
CCOC(=O)N1CCCC2(CC1)CC(=O)c1cc(/C=C/C(=O)NO)ccc1O2 (racemic) [Example 27, (±)-(E)-3-[1'-Ethyloxycarbonyl-4-oxo-spiro(chromane-2,4'-azepane)-6-yl]-N-hydroxy-acrylamide] | ≥ 3 | 1 to 3 | 1 to 3 | 0.1 to 1
O=C(/C=C/c1ccc2c(c1)C(=O)CC1(CCCN(CCc3ccccc3)CC1)O2)NO (racemic) [Example 28, (±)-(E)-3-[1'-(2-Phenyl-ethyl)-4-oxo-spiro(chromane-2,4'-azepane)-6-yl]-N-hydroxy-acrylamide] | ≤ 1 | ≤ 1 | ≤ 1 | ≤ 0.1
O=C(/C=C/c1ccc2c(c1)C(=O)CC1(CCCN(Cc3ccc(F)cc3)CC1)O2)NO (racemic) [Example 29, (±)-(E)-3-[1'-(4-Fluoro-benzyl)-4-oxo-spiro(chromane-2,4'-azepane)-6-yl]-N-hydroxy-acrylamide] | ≤ 1 | ≤ 1 | ≤ 1 | 0.1 to 1
O=C(/C=C/c1ccc2c(c1)C(=O)NC1(CCCNC1)O2)NO (racemic) [Example 39, (±)-(E)-3-{3,4-Dihydro-4-oxo-spiro[2H-(1,3)-benzoxazine-2,3'-piperidin]-6-yl}-N-hydroxy-acrylamide] | ≥ 3 | 1 to 3 | 1 to 3 | 0.1 to 1
O=C(/C=C/c1ccc2c(c1)C(=O)NC1(CCCN(Cc3ccccc3)C1)O2)NO (racemic) [Example 40, (±)-(E)-3-{1'-Benzyl-3,4-dihydro-4-oxo-spiro[2H-(1,3)-benzoxazine-2,3'-piperidin]-6-yl}-N-hydroxy-acrylamide] | ≤ 1 | ≤ 1 | ≤ 1 | ≤ 0.1
CN1CCCC2(C1)NC(=O)c1cc(/C=C/C(=O)NO)ccc1O2 (racemic) [Example 41, (±)-(E)-3-{1'-Methyl-3,4-dihydro-4-oxo-spiro[2H-(1,3)-benzoxazine-2,3'-piperidin]-6-yl}-N-hydroxy-acrylamide] | 1 to 3 | ≤ 1 | ≤ 1 | 0.1 to 1
O=C(/C=C/c1ccc2c(c1)C(=O)NC1(CCCN(Cc3ccc(F)cc3)C1)O2)NO (racemic) [Example 42, (±)-(E)-3-{1'-(4-Fluoro-benzyl)-3,4-dihydro-4-oxo-spiro[2H-(1,3)-benzoxazine-2,3'-piperidin]-6-yl}-N-hydroxy-acrylamide] | 1 to 3 | ≤ 1 | ≤ 1 | 0.1 to 1
O=C(/C=C/c1ccc2c(c1)C(=O)NC1(CCCN(CCc3ccccc3)C1)O2)NO (racemic) [Example 43, (±)-(E)-3-{1'-(2-Phenyl-ethyl)-3,4-dihydro-4-oxo-spiro[2H-(1,3)-benzoxazine-2,3'-piperidin]-6-yl}-N-hydroxy-acrylamide] | ≤ 1 | ≤ 1 | ≤ 1 | ≤ 0.1
Cn1cc(CN2CCCC3(CC(=O)c4cc(/C=C/C(=O)NO)ccc4O3)C2)c2ccccc21 (racemic) [Example 45, (±)-(E)-3-[1'-(1-Methyl-1H-indol-3-ylmethyl)-4-oxo-spiro(chromane-2,3'-piperidine)-6-yl]-N-hydroxy-acrylamide] | ≤ 1 | ≤ 1 | ≤ 1 | 0.1 to 1
Cn1cc(CN2CCCC3(C2)NC(=O)c2cc(/C=C/C(=O)NO)ccc2O3)c2ccccc21 (racemic) [Example 46, (±)-(E)-3-{1'-(1-Methyl-1H-indol-3-ylmethyl)-4-oxo-spiro[2H-(1,3)-benzoxazine-2,3'-piperidin]-6-yl}-N-hydroxy-acrylamide] | ≤ 1 | ≤ 1 | ≤ 1 | 0.1 to 1
CC(C)N1CCCC2(CC(=O)c3cc(/C=C/C(=O)NO)ccc3O2)C1 (racemic) [Example 49, (±)-(E)-3-[1'-Isopropyl-4-oxo-spiro(chromane-2,3'-piperidine)-6-yl]-N-hydroxy-acrylamide] | ≤ 1 | ≤ 1 | ≤ 1 | 0.1 to 1
O=C(/C=C/c1ccc2c(c1)C(=O)CC1(CCCN(C3CCCC3)C1)O2)NO (racemic) [Example 50, (±)-(E)-3-[1'-Cyclopentyl-4-oxo-spiro(chromane-2,3'-piperidine)-6-yl]-N-hydroxy-acrylamide] | ≤ 1 | ≤ 1 | ≤ 1 | ≤ 0.1
